Assay results: patent publication US10543212B2, “Substituted amines for treating cardiac diseases” (Cardurion Pharmaceuticals, LLC, priority 2017, dated 2020)

Molecular target: T1, Full-length, GST-tagged, human CaMKIIδ (Homo sapiens, UniProt Q13557)
T1 construct: Full-Length, Glutathione-S-Transferase(GST)-Tagged, Human CaMKIIδ was purchased from Carna Biosciences; purchased Carna Biosciences 02-111
Assay: CaMKIIδ binding assay (TR-FRET with BODIPY-labeled probe ligand)
Details: CaMKIIδ binding assay, results of Table 2
Procedure: In vitro CaMKIIδ inhibitory activity was evaluated by a binding assay.
Full-Length, Glutathione-S-Transferase(GST)-Tagged, Human CaMKIIδ was purchased from Carna Biosciences (product #02-111, Kobe, Japan). Full-length bovine calmodulin was purchased from Wako Pure Chemical Industries (Osaka, Japan). Terbium-labeled anti-GST antibody (Tb-anti-GST Ab) was purchased from Life Technologies (Carlsbad, Calif., USA). Boron-dipyrromethene (BODIPY)-labeled probe ligand was synthesized as described below.
Time-Resolved Fluorescence Resonance Energy Transfer (TR-FRET) Assay
All assays were conducted using 384-well, white, flat-bottomed plates (product #784075, Greiner Bio-One, Frickenhausen, Germany) in kinase assay buffer, which consists of 50 mM HEPES pH 7.6, 10 mM MgCl2, 1 mM EGTA, 0.01% Brig-35, 0.1 mM DTT). The fluorescent probe ligand was added at a final concentration of 300 nM to solutions containing 0.21 nM Tb-anti-GST Ab, 1 mM CaCl2), 10 μg/mL calmodulin, and 0.5 nM GST-tagged CaMKIIδ. After shaded incubation of the protein-probe mixture on ice for 30 min, the premix was dispensed in the assay plate including test inhibitors with 4 fold dilution series of eight concentrations. After 1 hr incubation at room temperature, TR-FRET signals were measured in duplicate using an EnVision microplate reader (Perkin Elmer, Waltham, Mass., USA). The solution in each well was excited with a laser (λ=340 nm) reflected by a dichroic mirror (D400/D505 (Perkin Elmer) through an excitation filter (UV (TRF) 340, (Perkin Elmer)), and fluorescence from Tb and BODIPY were detected through two emission filters (CFP 495 (Perkin Elmer) for Tb, Emission 520 (Perkin Elmer) for BODIPY).
The percentage of inhibition of test compounds was calculated according to equation (1) Inhibition (%)=100×([…]−T)/(μH−μL) (1)
Where T is the value of the wells containing test compounds and μH and μL are the mean values of the 0% and 100% inhibition control wells, respectively. The values of the 0 and 100% controls were the signals obtained in the absence and presence of 3 μM its parent compound, respectively. The half maximal inhibitory concentration (IC50) of test compounds was calculated by fitting the data with the logistic equation using XLfit (IDBS, Guildford, UK). The IC50 was classified according to the following activity ranks.

T1 sequence (Q13557 1-478 isoform Q13557-12): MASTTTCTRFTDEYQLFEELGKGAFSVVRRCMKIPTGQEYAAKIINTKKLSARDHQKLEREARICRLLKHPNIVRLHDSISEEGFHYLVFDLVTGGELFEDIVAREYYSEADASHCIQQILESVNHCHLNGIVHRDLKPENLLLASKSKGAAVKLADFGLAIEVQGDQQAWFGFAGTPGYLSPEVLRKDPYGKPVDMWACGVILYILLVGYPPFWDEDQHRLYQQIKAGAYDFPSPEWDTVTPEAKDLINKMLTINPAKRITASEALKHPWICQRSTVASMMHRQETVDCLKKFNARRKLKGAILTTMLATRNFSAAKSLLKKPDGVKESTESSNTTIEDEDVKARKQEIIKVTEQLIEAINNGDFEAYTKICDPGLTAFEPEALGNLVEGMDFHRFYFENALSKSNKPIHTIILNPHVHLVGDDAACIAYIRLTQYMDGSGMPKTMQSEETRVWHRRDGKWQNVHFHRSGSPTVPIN

With `COc1cc2c(cc1Nc1ncc(-c3ccc(Cl)c(O[C@@H](C)Cn4cnnn4)c3)cn1)CCN(CC(C)=O)C2` [Example 479, (S)-1-(6-((5-(3-((1-(1H-tetrazol-1-yl)propan-2-yl)oxy)-4-chlorophenyl)pyrimidin-2-yl)amino)-7-methoxy-3,4-dihydroisoquinolin-2(1H)-yl)propan-2-one] as the compound, how does the IC50 read?
The IC50 was < 0.01 µM.

For `COCC(=O)N1CCc2cc(OC)c(Nc3ncc(-c4ccc(Cl)c(O[C@@H](C)Cn5cnnn5)c4)cn3)cc2C1` [Example 500, (S)-1-(7-((5-(3-((1-(1H-tetrazol-1-yl)propan-2-yl)oxy)-4-chlorophenyl)pyrimidin-2-yl)amino)-6-methoxy-3,4-dihydroisoquinolin-2(1H)-yl)-2-methoxyethan-1-one], which IC50 is on record?
Its IC50 is 0.01 to 0.1 µM.

`C[C@@H](Cn1cnnn1)Oc1cc(-c2cnc(Nc3ccc4c(c3)N(C(=O)CCCN(C)C)CC4)nc2)ccc1Cl` [Example 436, (S)-1-(6-((5-(3-((1-(1H-tetrazol-1-yl)propan-2-yl)oxy)-4-chlorophenyl)pyrimidin-2-yl)amino)indolin-1-yl)-4-(dimethylamino)butan-1-one] was tested. Which IC50 did it give?
Its IC50 is < 0.01 µM.

With `COc1cc2c(cc1Nc1ncc(-c3ccc(Cl)c(O[C@@H](C)Cn4cnnn4)c3)cn1)N(CC1COC1)CC2` [Example 503, (S)-N-(5-(3-((1-(1H-tetrazol-1-yl)propan-2-yl)oxy)-4-chlorophenyl)pyrimidin-2-yl)-5-methoxy-1-(oxetan-3-ylmethyl)indolin-6-amine] as the compound, how does the IC50 read?
Its IC50 is 0.01 to 0.1 µM.

With `CC(=O)N1CCC(n2cc(Nc3ncc(-c4ccc(Cl)c(O[C@@H](C)Cn5cnnn5)c4)cn3)c(C(F)(F)F)n2)CC1` [Example 488, (S)-1-(4-(4-((5-(3-((1-(1H-tetrazol-1-yl)propan-2-yl)oxy)-4-chlorophenyl)pyrimidin-2-yl)amino)-3-(trifluoromethyl)-1H-pyrazol-1-yl)piperidin-1-yl)ethan-1-one] as the compound, how does the IC50 read?
The IC50 was < 0.01 µM.

For `COc1cc2c(cc1Nc1ncc(-c3ccc(Cl)c(O[C@@H](C)Cn4cnnn4)c3)cn1)CN(CCO)CC2` [Example 511, (S)-2-(7-((5-(3-((1-(1H-tetrazol-1-yl)propan-2-yl)oxy)-4-chlorophenyl)pyrimidin-2-yl)amino)-6-methoxy-3,4-dihydroisoquinolin-2(1H)-yl)ethan-1-ol], which IC50 is on record?
Its IC50 is < 0.01 µM.

`COc1cc2c(cc1Nc1ncc(-c3ccc(Cl)c(O[C@@H](C)Cn4cnnn4)c3)cn1)CN(C1CCOCC1)CC2` [Example 502, (S)-N-(5-(3-((1-(1H-tetrazol-1-yl)propan-2-yl)oxy)-4-chlorophenyl)pyrimidin-2-yl)-6-methoxy-2-(tetrahydro-2H-pyran-4-yl)-1,2,3,4-tetrahydroisoquinolin-7-amine] was tested. Which IC50 did it give?
Its IC50 is < 0.01 µM.

With `C[C@@H](Cn1cnnn1)Oc1cc(-c2cnc(Nc3cc4c(cc3C3CC3)CCN(C3COC3)C4)nc2)ccc1C#N` [Example 524, (S)-2-((1-(1H-tetrazol-1-yl)propan-2-yl)oxy)-4-(2-((6-cyclopropyl-2-(oxetan-3-yl)-1,2,3,4-tetrahydroisoquinolin-7-yl)amino)pyrimidin-5-yl)benzonitrile] as the compound, how does the IC50 read?
Its IC50 is 0.01 to 0.1 µM.

Which IC50 does the source give for `C[C@@H](Cn1cnnn1)Oc1cc(-c2cnc(Nc3cn(C4CCN(Cc5ccccc5)CC4)nc3C(F)(F)F)nc2)ccc1Cl` [Example 548, (S)-5-(3-((1-(1H-tetrazol-1-yl)propan-2-yl)oxy)-4-chlorophenyl)-N-(1-(1-benzylpiperidin-4-yl)-3-(trifluoromethyl)-1H-pyrazol-4-yl)pyrimidin-2-amine] here?
Its IC50 is < 0.01 µM.

Same assay, conditions: CaMKIIδ binding assay; activity class per Table 2

How did the IC50 turn out when `C[C@@H](Cn1cnnn1)Oc1cc(-c2cnc(Nc3cn(C4CC5(C4)CN(C(=O)OC(C)(C)C)C5)nc3C(F)(F)F)nc2)ccc1Cl` [Example 919, tert-butyl (S)-6-(4-((5-(3-((1-(1H-tetrazol-1-yl)propan-2-yl)oxy)-4-chlorophenyl)pyrimidin-2-yl)amino)-3-(trifluoromethyl)-1H-pyrazol-1-yl)-2-azaspiro[3.3]heptane-2-carboxylate] was run?
Its IC50 is ≥ 0.1 µM.

Same assay, conditions: Table 2; CaMKIIδ binding assay, activity given as class A/B/C

Which IC50 does the source give for `CC(C)c1nn(C2CCC(=O)CC2)cc1Nc1ncc(-c2ccc(Cl)c(O[C@@H](C)Cn3cnnn3)c2)cn1` [Example 841, (S)-4-(4-((5-(3-((1-(1H-tetrazol-1-yl)propan-2-yl)oxy)-4-chlorophenyl)pyrimidin-2-yl)amino)-3-isopropyl-1H-pyrazol-1-yl)cyclohexan-1-one] here?
The IC50 was < 0.01 µM.

How did the IC50 turn out when `C[C@@H](Cn1cccn1)Oc1cc(-c2cnc(Nc3cn([C@H]4CC[C@H](N5CCOCC5)CC4)nc3C(F)(F)F)nc2)ccc1C#N` [Example 786, 2-(((S)-1-(1H-pyrazol-1-yl)propan-2-yl)oxy)-4-(2-((1-(trans-4-morpholinocyclohexyl)-3-(trifluoromethyl)-1H-pyrazol-4-yl)amino)pyrimidin-5-yl)benzonitrile] was run?
Its IC50 is 0.01 to 0.1 µM.

Which IC50 does the source give for `C[C@@H](Cn1cnnn1)Oc1cc(-c2cnc(Nc3cn(CC4CNC(=O)O4)nc3C(F)(F)F)nc2)ccc1Cl` (stereo partly drawn) [Example 738, 5-((4-((5-(3-(((S)-1-(1H-tetrazol-1-yl)propan-2-yl)oxy)-4-chlorophenyl)pyrimidin-2-yl)amino)-3-(trifluoromethyl)-1H-pyrazol-1-yl)methyl)oxazolidin-2-one] here?
Its IC50 is < 0.01 µM.

`C[C@@H](Cn1cnnn1)Oc1cc(-c2cnc(Nc3n[nH]cc3Cl)nc2)ccc1Cl` [Example 749, (S)-5-(3-((1-(1H-tetrazol-1-yl)propan-2-yl)oxy)-4-chlorophenyl)-N-(4-chloro-1H-pyrazol-3-yl)pyrimidin-2-amine] was tested. Which IC50 did it give?
Its IC50 is 0.01 to 0.1 µM.

How did the IC50 turn out when `C[C@@H](Cn1cnnn1)Oc1cc(-c2cnc(Nc3cn(C4CCCCO4)nc3OCC(F)(F)F)nc2)ccc1C#N` (stereo partly drawn) [Example 763, 2-(((S)-1-(1H-tetrazol-1-yl)propan-2-yl)oxy)-4-(2-((1-(tetrahydro-2H-pyran-2-yl)-3-(2,2,2-trifluoroethoxy)-1H-pyrazol-4-yl)amino)pyrimidin-5-yl)benzonitrile] was run?
Its IC50 is < 0.01 µM.

Same assay, conditions: Table 2; activity class for CaMKIIδ

Which IC50 does the source give for `C[C@@H](Cn1cnnn1)Oc1cc(-c2cnc(Nc3cn(CCCO)nc3C(F)(F)F)nc2)ccc1Cl` [Example 718, (S)-3-(4-((5-(3-((1-(1H-tetrazol-1-yl)propan-2-yl)oxy)-4-chlorophenyl)pyrimidin-2-yl)amino)-3-(trifluoromethyl)-1H-pyrazol-1-yl)propan-1-ol] here?
Its IC50 is 0.01 to 0.1 µM.

For `C[C@@H](Cn1cnnn1)Oc1cc(-c2cnc(Nc3cn(C4CCNCC4)nc3OCC(F)(F)F)nc2)ccc1Cl` [Example 676, (S)-5-(3-((1-(1H-tetrazol-1-yl)propan-2-yl)oxy)-4-chlorophenyl)-N-(1-(piperidin-4-yl)-3-(2,2,2-trifluoroethoxy)-1H-pyrazol-4-yl)pyrimidin-2-amine], which IC50 is on record?
Its IC50 is < 0.01 µM.

With `C[C@@H](Cn1cnnn1)Oc1cc(-c2cnc(Nc3cn([C@@H]4C[C@H]5CC[C@@H](C4)N5)nc3C(F)(F)F)nc2)ccc1Cl` [Example 702, 5-(3-(((S)-1-(1H-tetrazol-1-yl)propan-2-yl)oxy)-4-chlorophenyl)-N-(1-((1R,3s,5S)-8-azabicyclo[3.2.1]octan-3-yl)-3-(trifluoromethyl)-1H-pyrazol-4-yl)pyrimidin-2-amine] as the compound, how does the IC50 read?
The IC50 was < 0.01 µM.

`Cc1ncc(N2CC(CN3CCOCC3)C2)cc1Nc1ncc(-c2ccc(Cl)c(O[C@@H](C)Cn3cnnn3)c2)cn1` [Example 610, (S)-5-(3-((1-(1H-tetrazol-1-yl)propan-2-yl)oxy)-4-chlorophenyl)-N-(2-methyl-5-(3-(morpholinomethyl)azetidin-1-yl)pyridin-3-yl)pyrimidin-2-amine] was tested. Which IC50 did it give?
Its IC50 is < 0.01 µM.

For `C[C@@H](Cn1cnnn1)Oc1cc(-c2cnc(Nc3cnn(CC4CC4)c3)nc2)ccc1Cl` [Example 725, (S)-5-(3-((1-(1H-tetrazol-1-yl)propan-2-yl)oxy)-4-chlorophenyl)-N-(1-(cyclopropylmethyl)-1H-pyrazol-4-yl)pyrimidin-2-amine], which IC50 is on record?
The IC50 was 0.01 to 0.1 µM.

Which IC50 does the source give for `COc1cc2c(cc1Nc1ncc(-c3ccc(C#N)c(O[C@@H](C)Cn4cnnn4)c3)cn1)NCCC2` [Example 590, (S)-2-((1-(1H-tetrazol-1-yl)propan-2-yl)oxy)-4-(2-((6-methoxy-1,2,3,4-tetrahydroquinolin-7-yl)amino)pyrimidin-5-yl)benzonitrile] here?
Its IC50 is < 0.01 µM.

With `C[C@@H](Cn1cnnn1)Oc1cc(-c2cnc(Nc3cc(C(F)(F)F)nn3C)nc2)ccc1Cl` [Example 720, (S)-5-(3-((1-(1H-tetrazol-1-yl)propan-2-yl)oxy)-4-chlorophenyl)-N-(1-methyl-3-(trifluoromethyl)-1H-pyrazol-5-yl)pyrimidin-2-amine] as the compound, how does the IC50 read?
The IC50 was 0.01 to 0.1 µM.
